Measured values taken from US20080027098A1, “Derivatives of alpha-phenylthiocarboxylic and alpha-phenyloxy-carboxylic acids useful for the treatment of diseases responding to PPARalpha activation” (SIGMA-TAU INDUSTRIE FARMACEUTICHE RIUNITE S.p.A., priority 2002, published 2008).
Marks after values point to notes of the source that are not given here.

Assays:
db/db mice = test: Increase in HDL-cholesterol levels in db/db mice; assay type: in vivo; settings: for Increase in HDL-cholesterol levels (%): further experiment, oral twice daily 14 days, dose equimolar to 25 mg/kg of ST2195, 8 hours after last treatment
Procedure: Increase in HDL-Cholesterol Levels in db/db Mice
In this experiment db/db mice were used in which PPARα expression is above normal (Memon et al., Endocrinology 2000, 4021-4031) and HDL-cholesterol levels are substantially elevated (Silver et al., J Biol Chem 1999, 274: 4140-4146).
The C57BL[KsJ db/db mice were acclimatised for one week in standard conditions (22±2° C.; 55±15% humidity; 15-20 air changes/hour; 12 hours light/darkness cycle with light from 7.00 a.m. to 7 p.m.) with a standard 4 RF21 diet (Mucedola). Blood samples were taken in post-absorption conditions (fasting from 8.30 a.m. to 4.30 p.m.) from the caudal vein with the aid of a Jelco 22G catheter (Johnson and Johnson). Glucose, insulin, triglyceride, cholesterol, free fatty acid and urea levels were checked in plasma for a homogeneous distribution of the mice in the treatment groups.
At the beginning of treatment the animals' body weight was checked and arrangements were made to monitor their water and feed consumption. […]
The compound tested, obtained as described in example 4 (ST 1929) was administered at the dose of 24 mg/kg in 10 ml/kg of vehicle (1% CMC containing Tween 80 0.5% in deionized H2O).
The other compounds tested were also administered at a dose equivalent to that in example 4.
Ciprofibrate, a known PPARα agonist (Varanasi et al., J Biol Chem 1996, 271: 2147-2155; Latruffe et al. Cell Biochem Biophys 2000, 32 Spring: 213-220) was administered at the dose of 20 mg/kg (Dwivedi et al., Toxicol Pathol 1989, 17: 16-26; Qi et al., Proc Natl Acad Sci USA 1999, 96: 1585-1590).
The animals were sacrificed (by decapitation) in conditions of post-absorption (fasting from 9.30 a.m. to 4.30 p.m.) 7 hours after the last treatment. The levels of a number of important lipid and carbohydrate metabolism parameters were determined in the serum.
The HDL-cholesterol levels were measured by treating the serum with phosphotungstic-acid-based precipitating reagent (ABX Diagnostics) which removes the chylomicrons, very low density and low density lipoproteins and determining the HDL-cholesterol levels in the supernatant with the aid of the Cholesterol Kit (ABX Diagnostics) and the Cobas Mira S Autoanalyzer (Roche).
In a further experiment, where the above reported ST2195 was used as reference compound, db/db mice were treated orally twice daily (8.30 a.m. and 6.30 p.m.) for 14 days with the test items (equimolar to 25 mg/kg of ST2 195) giving the following results reported in Table 3: […]

Gal4DBD/PPARαLBD = target: T1, Gal4DBD/PPARαLBD (Homo sapiens, UniProt Q07869); test: Transient transfection of COS-7 cells, Gal4DBD/PPARαLBD transactivation, CAT reporter (II method); assay type: cell-based; settings: for activation at 2 µM / activation at 20 µM / activation at 100 µM: read-out: percentage activation of the CAT reporter gene compared to reference compound WY-14.643 2 μM taken as 100%
T1 construct: expressed in transfected cells; host or cells: COS-7 (monkey kidney fibroblasts)
T1 sequence (Q07869 239-466 limits assumed): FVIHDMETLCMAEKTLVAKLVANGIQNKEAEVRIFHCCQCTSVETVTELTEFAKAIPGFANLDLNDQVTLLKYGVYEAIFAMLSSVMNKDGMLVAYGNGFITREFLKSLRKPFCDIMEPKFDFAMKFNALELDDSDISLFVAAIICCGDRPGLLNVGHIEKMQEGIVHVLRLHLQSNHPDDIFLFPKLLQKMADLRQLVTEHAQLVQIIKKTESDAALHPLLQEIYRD
Text: Transient Transfection of Eukaryotic Cells to Evaluate the Agonist Activity of PPARα Ligands (II Method)
An alternative transactivation system, which differs mainly in the way the receptor is positioned onto the DNA, and depending on how the event of ligand binding is translated into transcriptional activation, was used.
In this model eukaryotic cells were transiently transfected with an expression vector encoding a fusion protein between the DNA binding domain (DBD) of the yeast Gal4 transcription factor and the ligand binding domain (LBD) of the PPARα (Gal4DBD/PPARαLBD). The reporter vector containing 5 copies of the high affinity binding site for Gal4 (named UAS, upstream activating sequence) upstream of a strong viral promoter linked to the reporter gene chloramphenicol acetyltransferase (CAT), was co-transfected. This model offered some advantages, the most important of which was the absence of interference by endogenous receptors.
Besides expression and reporter vectors, cells were transfected with a control vector pCH110 that encodes the β-galactosidase enzyme to correct for differences in transfection efficiency.
A monkey kidney fibroblast cell line (COS-7) was used. Cells were co-transfected with the plasmid carrying the gene-reporter, the expression plasmid encoding the fusion protein Gal4DBD/PPARαLBD, and the control vector pCH110. Cells were then treated with increasing concentrations of test compounds and the CAT activity was measured. Untreated cells were used as control.
Monkey kidney fibroblasts (COS-7) were routinely grown in DMEM (Dulbecco's modified Eagle's medium) supplemented with 3.7 g/l sodium bicarbonate, 4 mM L-glutamine, 4.5 g/l glucose, 1 mM sodium piruvate and 10% v/v foetal bovine serum, in the presence of streptomycin 100 μg/ml and penicillin 100 U/ml.
COS-7 cells were transiently transfected by using the multi-component lipid-based FuGENE6 Transfection Reagent that complexes with and transports DNA into the cells during transfection. Cells were seeded at 1.2×10^5 cells/well, in 12-well plates, and cultured overnight at 37° C. in a 5% v/v carbon dioxide atmosphere. Two hours before transfection the culture medium was replaced by fresh serum-free medium and then transfection was performed with FuGENE6 Transfection Reagent according to the instructions of the manufacturer. Briefly, the transfection mixture containing (for each well) 0.8 μg of the expression vector, 1.6 μg of the reporter vector, 0.8 μg of the control vector and 9 μl of FuGENE6 Transfection Reagent was added directly to the cells in the presence of serum-free medium. After 5 hours the transfection medium was replaced by 1 ml of the complete culture medium with or without the test molecules at 3 different concentrations (2, 20 and 100 μM). 2 μM Wy-14,643, a known PPARα ligand, was used as positive control.
After 48 h, the cells were washed twice with 1 ml phosphate buffer (PBS) and then harvested by scraping them in TEN buffer (Tris [hydroxymethyl] aminomethane 10 mM pH 8, ethylenediamine tetraacetic acid 1 mM, pH 8, sodium chloride 0.1 M). Following centrifugation at room temperature, for 3 min at 1000 revs per minute (rpm), cells were resuspended with 60 μl of Lysis buffer (0.25M Tris-HCl, pH 8) and lysed by three rapid freeze/thaw cycles (three 5-minute cycles). Cell debris was then removed by centrifugating at 4° C., for 15 min at 15.000 revs per minute (rpm),. Glycerol (final 10% v/v) and β-mercaptoethanol (final 5 mM) were then added (final volume 75 μl) and the cell extracts were stored at −80° C. until assayed.
The CAT activity assay was performed as follows: 20 μl of cell lysate (pre-warmed at 65° C. for 10 min to deactivate internal deacetylase enzymatic activity) were added to 10 μl of 3.5 mg/ml n-butirryl-CoA, 5 μl ([…]) of [14C]-chloramphenicol and 65 μl of distilled H20 and incubated 2 h at 37° C. Reaction was blocked by adding 200 μl of the solution xylene/2,6,10,14 tetramethyl-pentadecane (in a 1:2 v/v mixture). […]

| melting point | activation at 2 µM (Gal4DBD/PPARαLBD; 2 μM) | activation at 20 µM (Gal4DBD/PPARαLBD; 20 μM) | activation at 100 µM (Gal4DBD/PPARαLBD; 100 μM) | SMILES | other results |
| --- | --- | --- | --- | --- | --- |
| 110 to 112 °C |  |  |  | COC(=O)C(C)(C)Sc1ccc(O)cc1 [ST1923, methyl 2-(4-hydroxyphenylthio)isobutyrate] |  |
| 152 to 154 °C |  |  |  | CC(C)(Sc1ccc(O)cc1)C(=O)O [ST1981, 2-(4-hydroxyphenylthio)isobutyric acid] |  |
| 41.5 to 42.5 °C |  |  |  | COC(=O)C(C)(C)Sc1cccc(O)c1 [ST2047, methyl 2-(3-hydroxyphenylthio)isobutyrate] |  |
| 72 to 74 °C |  |  |  | COC(=O)C(C)(C)Sc1ccc(OCCn2c3ccccc3c3ccccc32)cc1 [ST2387, methyl 2-[4-(2-(carbazol-9-yl)ethoxy)phenyl-thio]isobutyrate] |  |
|  | 139% | 291% | 249% | COC(=O)C(C)(C)Sc1ccc(OCCn2ccc3cc(OCc4ccccc4)ccc32)cc1 [ST2562, methyl 2-[4-[2-(1-(5-benzyloxy)indolyl)ethoxy]phenyl-thio]isobutyrate] |  |
|  | 98.6% | 269% | 255% | COC(=O)C(C)(C)Sc1ccc(OCCn2ccc3cc(OC)ccc32)cc1 [ST2577, methyl 2-[4-[2-(1-(5-methoxy)indolyl)ethoxy]phenyl-thio]isobutyrate] |  |
|  | 132% | 199% | 204% | CC(C)(Sc1cccc(OCCc2ccc(Cl)cc2Cl)c1)C(=O)O [ST2653, 2-[3-(2-(2,4-dichlorophenyl)ethoxy)phenyl-thio]-2-isobutyric acid] |  |
|  | 150% | 177% | 115% | CC(C)(Sc1ccc(OCCn2ccc3cc(OCc4ccccc4)ccc32)cc1)C(=O)O [ST2740, 2-[4-[2-(1-(5-benzyloxy)indolyl)ethoxy]phenyl-thio]isobutyric acid] |  |

Continued, compound first:

| SMILES | melting point | activation at 2 µM (Gal4DBD/PPARαLBD; 2 μM) | activation at 20 µM (Gal4DBD/PPARαLBD; 20 μM) | activation at 100 µM (Gal4DBD/PPARαLBD; 100 μM) | other results |
| --- | --- | --- | --- | --- | --- |
| COC(=O)C(C)(C)Sc1cccc(OC(=O)Nc2ccc(C(F)(F)F)cc2)c1 | 66 to 67 °C |  |  |  |  |
| COC(=O)C(C)(C)Sc1ccc(OC(=O)Nc2ccc(C(F)(F)F)cc2)cc1 | 110 to 111 °C |  |  |  |  |
| CC(C)(Oc1ccc(CCNC(=O)c2ccc(Cl)cc2)cc1)C(=O)O [Bezafibrate, reference compound] |  |  |  |  | Increase in HDL/cholesterol levels (%) (db/db mice; 24.8 mg/kg, 25 days): +14% |
| CC(C)(Oc1ccc(C2CC2(Cl)Cl)cc1)C(=O)O (stereo not shown) [Ciprofibrate, reference compound] |  |  |  |  | Increase in HDL/cholesterol levels (%) (db/db mice; oral twice daily, 20 mg/kg, 14 days): +52 ▴ % |
| COC(=O)C(C)(C)Sc1ccc(OCCc2ccc(Cl)cc2)cc1 [ST1929] |  |  |  |  | Increase in HDL/cholesterol levels (%) (db/db mice; oral twice daily, 24 mg/kg, 10 days): +80 ▴ % |
| COC(=O)C(C)(C)Sc1ccc(OCCn2ccc3ccccc32)cc1 [ST1983] |  |  |  |  | Increase in HDL-cholesterol levels (%) (db/db mice): +69Δ %; percentage activation of the CAT reporter gene compared to reference compound WY-14.643 2 μM taken as 100% (Gal4DBD/PPARαLBD; 2 μM): 150%; percentage activation of the CAT reporter gene compared to reference compound WY-14.643 2 μM taken as 100% (Gal4DBD/PPARαLBD; 20 μM): 391.2%; percentage activation of the CAT reporter gene compared to reference compound WY-14.643 2 μM taken as 100% (Gal4DBD/PPARαLBD; 100 μM): 1372% |
| COC(=O)C(C)(C)Sc1ccc(OCCc2ccc3ccccc3c2)cc1 [ST2011, methyl 2-[4-[2-(2-naphthyl)ethoxy]phenyl-thio]isobutyrate] | 56 to 57 °C |  |  |  |  |
| COC(=O)C(C)(C)Sc1cccc(OCCc2ccc3ccccc3c2)c1 [ST2167, methyl 2-[3-[2-(2-naphthyl)ethoxy]phenyl-thio]isobutyrate] |  | 98.1% | 360% | 463% | Increase in HDL/cholesterol levels (%) (db/db mice; 26.1 mg/kg, 25 days): +29ρ % |
| COC(=O)C(C)(C)Sc1cccc(OCCc2ccc(Cl)cc2)c1 [ST2195, methyl 2-[3-[2-(4-chlorophenyl)ethoxy]phenyl-thio]isobutyrate] |  |  |  |  | Increase in HDL/cholesterol levels (%) (db/db mice; 25.0 mg/kg, 25 days): +20ρ %; Increase in HDL-cholesterol levels (%) (db/db mice): +67Δ % |
| COC(=O)C(C)(C)Sc1cccc(OCCn2c3ccccc3c3ccccc32)c1 [ST2365, methyl 2-[3-(2-(carbazol-9-yl)ethoxy)phenyl-thio]isobutyrate] | 101 to 103 °C |  |  |  |  |
| COC(=O)C(C)(C)Sc1ccc(OCCc2ccc(Cl)cc2Cl)cc1 [ST2531, methyl 2-[4-(2-(2,4-dichloro-phenyl)ethoxy)phenylthio]isobutyrate] | 73 to 74 °C |  |  |  |  |
| COC(=O)C(C)(C)Sc1cccc(OCCc2ccc(Cl)cc2Cl)c1 [ST2534, methyl 2-[3-(2-(2,4-dichloro-phenyl)ethoxy)phenylthio]isobutyrate] |  | 113% | 285% | 421% | Increase in HDL-cholesterol levels (%) (db/db mice): +61Δ % |
| CC(C)(Sc1ccc(OCCn2ccc3ccccc32)cc1)C(=O)O [ST2622, 2-[4-[2-(1-indolyl)ethoxy]phenyl-thio]-isobutyric acid] |  | 105% | 231% | 311% | Increase in HDL-cholesterol levels (%) (db/db mice): +54Δ % |
| COc1ccc2c(ccn2CCOc2ccc(SC(C)(C)C(=O)O)cc2)c1 [ST2733, 2-[4-[2-(1-(5-methoxy)indolyl)ethoxy]phenyl-thio]isobutyric acid] |  | 77.2% | 193% | 239% | Increase in HDL/cholesterol levels (%) (db/db mice; second experiment, 26.4 mg/kg, 16 days): +70[…] % |
